Data as given in patent US20180057467A1, “NOVEL TRIAZOLE DERIVATIVES” (BAYER CROPSCIENCE AKTIENGESELLSCHAFT, priority 2015, published 2018).

What was measured:
[1] = tested on: Venturia inaequalis; experiment: Example T: in vivo preventive test on Venturia test (apples), comparison vs. known compounds; settings: rate of application 10 ppm, evaluated 10 days after inoculation
Protocol: Example T: In Vivo Preventive Test on Venturia Test (Apples) Comparison of Compounds According to the Invention Vs. Known Compounds
The plants are then placed in a greenhouse at approximately 21° C. and a relative atmospheric humidity of approximately 90%.
The test is evaluated 10 days after the inoculation.

[2] = tested on: Phakopsora pachyrhizi; experiment: Example U: in vivo preventive test on Phakopsora test (soybeans), comparison vs. known compounds; settings: rate of application 5 ppm, evaluated 7 days after inoculation
Protocol: Example U: In Vivo Preventive Test on Phakopsora Test (Soybeans); Comparison of Compounds According to the Invention Vs. Known Compounds
After the spray coating has dried on, the plants are inoculated with an aqueous spore suspension of the causal agent of soybean rust (Phakopsora pachyrhizi) and stay for 24 h without light in an incubation cabinet at approximately 24° C. and a relative atmospheric humidity of 95%.
The plants remain in the incubation cabinet at approximately 24° C. and a relative atmospheric humidity of approximately 80% and a day/night interval of 12 h.
The test is evaluated 7 days after the inoculation.

[3] = LogP by HPLC on reversed phase columns (EEC directive 79/831 Annex V.A8); assay type: physicochemical; settings: LogP
Protocol: [table] If more than one Log P value is available within the same method, all the values are given and separated by “+”. […] Lambda-max-values were determined using UV-spectra from 200 nm to 400 nm and the peak values of the chromatographic signals.

**Q.** With OC(Cn1cncn1)(c1ccc(F)cc1F)C1(Oc2c(F)cc(Cl)cc2F)CC1 (racemic) [Example I-01] as the molecule, how does the Efficacy in % [1] read?
**A.** 98%

**Q.** And the Efficacy in % [2]?
**A.** 95%

**Q.** What about the chromatographic logP [3] of the same molecule?
**A.** 3.57

**Q.** For OC(Cn1cncn1)(c1ccc(F)cc1F)C1(Oc2c(F)cc(Br)cc2F)CC1 (racemic) [Example I-03], which Efficacy in % [1] is on record?
**A.** 93%

**Q.** And the Efficacy in % [2]?
**A.** 89%

**Q.** And the chromatographic logP [3]?
**A.** 3.7

**Q.** Which results are given for OC(Cn1cncn1)(c1ccc(F)cc1)C1(Oc2ccc(Cl)cc2Cl)CC1 (stereo not shown) [DE-A 3522440 Ex. I-44, reference compound]?
**A.** Efficacy in % [1]: 0%; Efficacy in % [2]: 15%

**Q.** Which Efficacy in % [1] does the source give for OC(Cn1cncn1)(c1ccc(F)cc1F)C1(Oc2ccccc2)CC1 (stereo not shown) [DE-A 3522440 Ex. I-134, reference compound] here?
**A.** 76%

**Q.** What about the Efficacy in % [2] of the same molecule?
**A.** 0%
